Measurements published in patent publication US20240158440A1, “PEPTIDE AND COMPOSITION CONTAINING PEPTIDE AS ACTIVE INGREDIENT” (MORINAGA MILK INDUSTRY CO., LTD., priority 2021, published 2024).
No end group written: not given here.

Experiments:
Type in all cases: in vivo
male ddy mice [1] = test: Elevated plus maze test
Excerpt: An elevated plus maze having a plus shape in which two flat plates (arms) of 25 cm×5 cm were crossed was placed at a height of 50 cm from the floor. One type of the arms is closed arms having transparent walls with a height of 15 cm, and a mouse can walk safely without fear of falling. The other arms are open arms without such walls, and the sides are open. […] Through anxiolytic treatment of a mouse, however, the time of stay in the open arms tends to be longer. Thus, in a confirmation test of an anxiolytic action, the anxiolytic activity becomes higher as the time of stay of a mouse in the open arms is longer or as the number of entries is higher. […]
The peptide NLPPLT synthesized in Production Example 2 was administered at a dose of 3 μg or 10 μg per 1 kg body weight to male ddy mice 30 minutes before the test, and 30 minutes later, each mouse was put on the central platform where the open arms crossed the closed arms to conduct the test (peptide NLPPLT administration group, n=6). For five minutes after starting, the total time of stay of the mouse on the open arms (time in open arms), the number of entries into the open arms (visit to open arms) and the total number of entries into the arms (total visits) were recorded.
Moreover, as a control, the same test was conducted using male ddy mice to which the peptide as the test substance was not administered (control group, n=6).
Furthermore, to examine the mechanism of action, the same test was conducted using male ddy mice to which 10 mg/kg of an antagonist of the serotonin 5-HT1A receptor, WAY100135 (manufactured by Tocris Bioscience) was orally administered in addition to 10 μg/kg body weight of the peptide NLPPLT synthesized in Production Example 2 (peptide NLPPLT+serotonin antagonist administration group, n=5).
From the obtained results, the proportions (%) of the time of stay on the open arms and the proportions (%) of the number of entries into the open arms were calculated as indicators of the anxiolytic activity, and the differences with a statistical significance were examined by the Tukey-Kramer method.

male ddy mice [2] = test: Open field test; settings: for Proportion (%) of Time of Stay in Center Circle / Proportion (%) of Number of Entries into Center Circle: 30 minutes before the test; for Proportion (%) of Time of Stay in Center Circle: control 0.3; for Proportion (%) of Number of Entries into Center Circle: control 1.5
Experimental: An open field test was conducted as a behavior test used for screening an antianxiety drug. […] […] Here, in this open field test, a circular field consisting of a plurality of concentric circles with a common center with different radii was used. The circle closest to the center in the field is considered as the center of the field, and the time in which a mouse placed in the center of the field stays in the center of the field is measured.
The peptide NLPPLT synthesized in Production Example 2 was administered at a dose of 10 μg, 30 μg or 100 μg per 1 kg body weight to male ddy mice 30 minutes before the test, and 30 minutes later, each mouse was put in the center of the field to conduct the test (peptide NLPPLT administration group, n=5). For five minutes after starting, the time of stay was recorded.
Moreover, as a control, the same test was conducted using male ddy mice to which the peptide as the test substance was not administered (control group, n=5-6).
From the obtained results, the proportions (%) of the time of stay were calculated as an indicator of the anxiolytic activity.

male ddy mice [3] = test: Tail suspension test; settings: for Immobile Time (second): 30 minutes before the test, control 88.9, *P<0.05 vs Control; for Immobile Time: control 99.0
Experimental: A tail suspension test used for screening an antidepressant was conducted. When a mouse is hung by fixing its tail and thus put under inescapable conditions, it is believed that the mouse first tries to escape and moves but becomes immobile by despair with the time. On the other hand, in a mouse treated with an antidepressant, the time of escaping behavior increases, and the immobile time decreases. That is, when the immobile time decreases, the drug is evaluated to have an antidepressive effect.
The WPH synthesized in Production Example 1 was administered at a dose of 1 mg, 10 mg or 100 mg per 1 kg body weight to male ddy mice 30 minutes before the test, and 30 minutes later, the mice were hung by fixing their tails to conduct the test (WPH administration group, n=9-11). For six minutes after starting, the time with immobile behavior was recorded.
Moreover, as a control, the same test was conducted using male ddy mice to which the peptide as the test substance was not administered (control group, n=9-11).
From the obtained results, the times (second) with immobile behavior were calculated as an indicator of the antidepressive activity.
The peptide NLPPLT synthesized in Production Example 2 was administered at a dose of 10 μg or 30 μg per 1 kg body weight to male ddy mice 30 minutes before the test, and 30 minutes later, the mice were hung by fixing their tails to conduct the test (peptide NLPPLT administration group, n=5-6). For six minutes after starting, the time with immobile behavior was recorded.
Moreover, as a control, the same test was conducted using male ddy mice to which the peptide as the test substance was not administered (control group, n=5-6). […]

| Molecule | Proportion (%) of Time of Stay on Open Arms (male ddy mice [1]; Table 2, peptide alone (dose not given; 10 μg/kg), control 20.9) | Proportion (%) of Number of Entries into Open Arms (male ddy mice [1]; Table 2, peptide alone (dose not given; 10 μg/kg), control 26.7) | Proportion (%) of Time of Stay on Open Arms (male ddy mice [1]; Table 3, 3 μg/kg, 30 minutes before the test, control 15.4) | Proportion (%) of Number of Entries into Open Arms (male ddy mice [1]; Table 3, 3 μg/kg, 30 minutes before the test, control 22.7) | Proportion (%) of Time of Stay on Open Arms (male ddy mice [1]; Table 3, 10 μg/kg, 30 minutes before the test, control 15.4) | Proportion (%) of Number of Entries into Open Arms (male ddy mice [1]; Table 3, 10 μg/kg, 30 minutes before the test, control 22.7) | Anxiolytic activity (time of stay on / entries into open arms compared to control) (male ddy mice [1]; conclusion in words) | Proportion (%) of Time of Stay in Center Circle (male ddy mice [2]; 0.01 mg/kg) | Proportion (%) of Number of Entries into Center Circle (male ddy mice [2]; 0.01 mg/kg) | Proportion (%) of Time of Stay in Center Circle (male ddy mice [2]; 0.03 mg/kg) | Proportion (%) of Number of Entries into Center Circle (male ddy mice [2]; 0.03 mg/kg) | Proportion (%) of Time of Stay in Center Circle (male ddy mice [2]; 0.1 mg/kg) | Proportion (%) of Number of Entries into Center Circle (male ddy mice [2]; 0.1 mg/kg) | Anxiolytic activity (time of stay in center compared to control) (male ddy mice [2]; conclusion in words) | Immobile Time (second) (male ddy mice [3]; Table 6, 0.01 mg/kg) | Immobile Time (second) (male ddy mice [3]; Table 6, 0.03 mg/kg) | Immobile Time (male ddy mice [3]; Table 7, NLPPLT 0.01 mg/kg (p.o.) alone) | Antidepressive activity (time with immobile behavior compared to control) (male ddy mice [3]; conclusion in words) | Immobile Time (male ddy mice [3]; Table 7, NBQX 10 mg/kg (i.p.) alone) |
| --- | --- | --- | --- | --- | --- | --- | --- | --- | --- | --- | --- | --- | --- | --- | --- | --- | --- | --- | --- |
| NLPPLT [Peptide NLPPLT] | 33.1% | 35.1% | 19.9% | 23.4% | 24.4% | 31.7% | has an anxiolytic activity | 0.6% | 1.7% | 0.7% | 1.6% | 0.8% | 2.1% | has an anxiolytic activity | 15.7* second | 27.1* second | 23.0 s | has an antidepressive activity | – |
| NS(=O)(=O)c1cccc2c1c([N+](=O)[O-])cc1nc(O)c(O)nc12 [AMPA Antagonist, NBQX, reference compound] | – | – | – | – | – | – | – | – | – | – | – | – | – | – | – | – | – | – | 69.8 s |
